In article PMC10945480 (Journal of Medicinal Chemistry, 2024):
Like-named read-outs stand apart in the source and are kept apart here.

How the values were obtained:
[1] = system: washed human platelets; assay: U46619-induced platelet aggregation; assay type: cell-based; details: for IC50: Platelet, washed human platelets, U46619 (1 μM)
Protocol: (§1) The antiplatelet effects of the JUG derivatives were evaluated by measuring human platelet aggregation, which can be regulated by cell surface PDI. Platelet aggregation was induced with platelet activators U46619 (a mimetic of thromboxane A2) and collagen (binding to GPVI).
(§2) Washed human platelets were prepared from acid citrate dextrose-anticoagulated blood of healthy human volunteers as described previously.[73] The study was approved by the Institutional Review Board of Kaohsiung Medical University, and informed consent was obtained from every volunteer. Platelet aggregation was measured by using a turbidimetric aggregometer (Chrono-Log Co., USA) under stirring conditions (1200 rpm) at 37 °C. The extent of platelet aggregation was measured as the maximal increase of light transmission after the addition of the stimulators U46619 and collagen.[73] In the TCIPA assay, platelet aggregation was induced by A549 (1 × 10^4 cells/mL), MDA-MB-231 (1 × 10^2 cells/mL), or RPMI8226 (1 × 10^5 cells/mL) cancer cells in the presence of 0.375% plasma.[74]

[2] = system: washed human platelets; assay: Collagen-induced platelet aggregation; assay type: cell-based; details: for IC50: Platelet, washed human platelets, collagen (5 μg/mL)
Protocol: as §1, §2

[3] = Parallel artificial membrane permeability assay (PAMPA); details: 50 μM, 3 h
Protocol: 1. Parallel artificial membrane permeability assay (PAMPA). […]
evolution instruments from pION Inc. In the PAMPA assay, a set of sandwich plates consists of a 96-well microtiter donor plate at the bottom and a 96-well filter acceptor plate on the top from […]
The stock solutions of samples were prepared at 10 mM concentrations in DMSO and stored at 0 ℃ before use. Before being added to a 96-well filter plate, the stock solution was diluted first with buffer to achieve a final sample concentration of 50 μM and to reduce the DMSO concentration below 1% (v/v). Each well of the 96-well donor plate was filled with a 200 μL diluted sample solution (50 μM), and the 96-well filter acceptor plate was then wetted with a 5 μL 2% w/v dioleyoylphosphatidylcholine (DOPC) in n-dodecane and subsequently placed on the donor wells.
Immediately, the acceptor wells were filled with 200 μL of buffer solution and the PAMPA plate sandwich was sealed and incubated at 25 ℃ for 3 h. After reaching the permeation time, the PAMPA plate sandwich was separated and transferred to 96-well UV plates respectively. The amounts of drugs in both the donor and acceptor compartments were measured by comparing the experimental spectra with the UV spectrum (220∼400 nm) obtained from reference standards.

[4] = system: glioma U87; assay: Cell viability, resazurin assay, U87; details: Homo sapiens, 24 h, read-out: U87 IC50
Protocol: (§3) Cells were maintained in a humidified incubator at 37 °C in 5% CO2, and cell viability was determined with the resazurin assay (Cayman Chemical, USA) after the incubation with compounds for indicated concentrations and times or DMSO as control.[72]

[5] = system: lung cancer A549; assay: Cell viability, resazurin assay, A549; details: for IC50: Homo sapiens, A549, 24 h, read-out: A549 IC50
Protocol: as §3

[6] = system: multiple myeloma RPMI8226; assay: Cell viability, resazurin assay, RPMI8226; details: for IC50: Homo sapiens; for S.I. (EAhy926/RPMI8226), selectivity index: 24 h IC50 ratio
Protocol: as §3

[7] = system: breast cancer MDA-MB-231; assay: Cell viability, resazurin assay, MDA-MB-231; details: for IC50: Homo sapiens, MDA-MB-231, 24 h, read-out: MDA-MB-231 IC50
Protocol: as §3

[8] = target: purified human recombinant PDI (rPDI) (Homo sapiens, UniProt P07237); assay: Recombinant PDI reductase activity (Di-E-GSSG assay); details: read-out: rPDI IC50; human recombinant PDI, Di-E-GSSG, 5 μM DTT
purified human recombinant PDI (rPDI), sequence (P07237 18-508): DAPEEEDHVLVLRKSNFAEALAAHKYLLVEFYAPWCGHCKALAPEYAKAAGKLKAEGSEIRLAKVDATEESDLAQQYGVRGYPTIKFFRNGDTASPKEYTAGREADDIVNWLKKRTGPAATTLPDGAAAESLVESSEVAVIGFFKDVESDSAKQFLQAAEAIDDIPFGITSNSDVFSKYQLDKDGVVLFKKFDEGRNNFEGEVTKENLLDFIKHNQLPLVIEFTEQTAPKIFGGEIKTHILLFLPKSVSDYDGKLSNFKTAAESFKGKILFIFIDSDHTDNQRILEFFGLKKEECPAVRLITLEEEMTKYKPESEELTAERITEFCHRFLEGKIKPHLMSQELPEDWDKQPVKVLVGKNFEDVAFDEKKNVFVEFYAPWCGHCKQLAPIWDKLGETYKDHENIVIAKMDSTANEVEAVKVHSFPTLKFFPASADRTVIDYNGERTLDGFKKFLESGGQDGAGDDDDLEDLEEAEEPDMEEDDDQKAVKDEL
Protocol: (§4) In this assay, a nonfluorescent substrate, dieosin glutathione disulfide (Di-E-GSSG), was reduced into a fluorescent product eosin-glutathione (E-GSH) by platelet surface PDI in the presence of 5 μM dithiothreitol (DTT).

[9] = target: platelet surface PDI (Homo sapiens, UniProt P07237); assay: Cell surface PDI reductase activity on intact human platelets (Di-E-GSSG assay); details: read-out: Surface PDI IC50; intact human platelets, Di-E-GSSG, 5 μM DTT
platelet surface PDI, sequence (P07237 18-508): as above
Protocol: as §4

[10] = system: human vascular endothelial EA.hy926 cells; assay: Cell viability, resazurin assay, EA.hy926; details: EA.hy 926, 24 h, read-out: EAhy926 IC50
Protocol: as §3

[11] = 25 ℃, verapamil = 100%, ranitidine = 0%
[12] = RPMI-8226, 24 h, read-out: RPMI8226 IC50
[13] = concentrations up to 40 μM, unpublished data

IC50 [1] | IC50 [2] | Permeability (%) [3, 11] | IC50 [4] | IC50 [5] | IC50 [6, 12] | IC50 [7] | IC50 [8] | IC50 [9] | IC50 ([6]; RPMI-8226, 72 h, read-out: RPMI8226 IC50, 72 h) | Compound | S.I. (EAhy926/RPMI8226), selectivity index [6] | IC50 [10] | Permeability (%) [3] | effect on U46619-induced platelet aggregation [1, 13] | effect on collagen-induced platelet aggregation [2, 13] | effect on cell viability of A549 ([5]; unpublished data) | effect on cell viability of RPMI8226 ([6]; unpublished data) | effect on cell viability of MDA-MB-231 ([7]; unpublished data)
> 50000 nM | > 50000 nM | -0.96% | > 20 µM | > 100 µM | > 20 µM | > 100 µM | 3700 ± 1220 nM | 1170 ± 380 nM |  | O=C1C=C(SC[C@H]2OC(O)[C@H](O)[C@@H](O)[C@@H]2O)C(=O)c2c(O)cccc21 (mixture of isomers) [Compound 19, 2-(6-Deoxy-6-thio-D-glucose)-8-hydroxynaphthalene-1,4-dione] |  |  |  |  |  |  |  | 
 |  |  | > 20 µM | 13 ± 0.29 µM | 8.77 ± 0.29 µM | 6.42 ± 0.29 µM |  |  |  | COc1ccc(N2C(=O)/C(=C\c3ccc([N+](=O)[O-])s3)SC2=S)cc1 [CCF642, reference compound] | 0.64 | 5.57 ± 0.25 µM |  |  |  |  |  | 
1600 ± 160 nM | 380 ± 130 nM | 38.9% | 8.06 ± 0.48 µM | 13.9 ± 0.53 µM | 0.77 ± 0.05 µM | 5.57 ± 0.7 µM | 710 ± 40 nM | 840 ± 60 nM |  | COc1cccc(SC2=CC(=O)c3cccc(O)c3C2=O)c1 [Compound 9, 2-((3-Methoxyphenyl)thio)-8-hydroxynaphthalene-1,4-dione] | 8.9 | 6.89 ± 0.12 µM |  |  |  |  |  | 
2660 ± 420 nM | 710 ± 30 nM | 28.4% | > 20 µM | 17.3 ± 0.9 µM | > 20 µM | > 100 µM | 1340 ± 120 nM | 790 ± 260 nM |  | COc1ccccc1SC1=CC(=O)c2cccc(O)c2C1=O [Compound 10, 2-((2-Methoxyphenyl)thio)-8-hydroxynaphthalene-1,4-dione] |  |  |  |  |  |  |  | 
1850 ± 170 nM | 640 ± 50 nM | 8.5% | > 20 µM | > 100 µM | 3.5 ± 0.26 µM | 15.1 ± 1.48 µM | 1290 ± 300 nM | 1500 ± 50 nM |  | CC(C)(C)c1ccc(SC2=CC(=O)c3cccc(O)c3C2=O)cc1 [Compound 13, 2-((4-(tert-Butyl)phenyl)thio)-8-hydroxynaphthalene-1,4-dione] | >5.7 | > 20 µM |  |  |  |  |  | 
1300 ± 350 nM | 750 ± 140 nM |  | 6.4 ± 0.12 µM | 16.1 ± 0.27 µM | 0.58 ± 0.03 µM | 6.92 ± 1.1 µM | 1500 ± 250 nM | 770 ± 200 nM |  | O=C1C=C(Sc2ccc(O)cc2)C(=O)c2c(O)cccc21 [Compound 14, 2-((4-Hydroxyphenyl)thio)-8-hydroxynaphthalene-1,4-dione] | 9.8 | 5.69 ± 0.16 µM |  |  |  |  |  | 
> 20000 nM | > 20000 nM | 9.28% | > 20 µM | > 100 µM | > 20 µM | > 100 µM |  | > 20000 nM |  | COc1ccc(SC2=C(O)C(=O)c3cccc(O)c3C2=O)cc1 [Compound 28, 3,8-Dihydroxy-2-((4-methoxyphenyl)thio)naphthalene-1,4-dione] |  |  |  |  |  |  |  | 
 |  | 0% |  |  |  |  |  |  |  | CNC(=C[N+](=O)[O-])NCCSCc1ccc(CN(C)C)o1 [Ranitidine, reference compound] |  |  |  |  |  |  |  | 

Second part, the compound before the results:

Compound | IC50 [1] | IC50 [2] | Permeability (%) [3, 11] | IC50 [4] | IC50 [5] | IC50 [6, 12] | IC50 [7] | IC50 [8] | IC50 [9] | IC50 ([6]; RPMI-8226, 72 h, read-out: RPMI8226 IC50, 72 h) | S.I. (EAhy926/RPMI8226), selectivity index [6] | IC50 [10] | Permeability (%) [3] | effect on U46619-induced platelet aggregation [1, 13] | effect on collagen-induced platelet aggregation [2, 13] | effect on cell viability of A549 ([5]; unpublished data) | effect on cell viability of RPMI8226 ([6]; unpublished data) | effect on cell viability of MDA-MB-231 ([7]; unpublished data)
COc1ccc(SC2=CC(=O)c3cccc(O)c3C2=O)cc1 [Compound 8, 2-((4-Methoxyphenyl)thio)-8-hydroxynaphthalene-1,4-dione] | 1520 ± 80 nM | 290 ± 60 nM | 80.43% | 16.8 ± 0.62 µM | 14.9 ± 0.43 µM | 4.7 ± 0.08 µM | 6.63 ± 0.93 µM | 1440 ± 80 nM | 1370 ± 230 nM |  | 3.0 | 13.9 ± 1.17 µM |  |  |  |  |  | 
COc1ccc(SC2=CC(=O)c3cccc(O)c3C2=O)cc1OC [Compound 11, 2-((3,4-Dimethoxyphenyl)thio)-8-hydroxynaphthalene-1,4-dione] | 2430 ± 300 nM | 1580 ± 880 nM | 2.7% | > 20 µM | 12.4 ± 1.56 µM | 2.26 ± 0.07 µM | 38.9 ± 4.89 µM | 14000 ± 1670 nM | 1280 ± 290 nM |  | >8.8 | > 20 µM |  |  |  |  |  | 
Cc1ccc(SC2=CC(=O)c3cccc(O)c3C2=O)cc1 [Compound 12, 2-(p-Tolylthio)-8-hydroxynaphthalene-1,4-dione] | 1820 ± 170 nM | 760 ± 20 nM |  | > 20 µM | > 100 µM | 3.83 ± 0.28 µM | 25.2 ± 2.58 µM | 3450 ± 180 nM | 1840 ± 50 nM |  | >5.2 | > 20 µM | 0.1% |  |  |  |  | 
CCCCCSC1=CC(=O)c2cccc(O)c2C1=O [Compound 16, 2-(Pentylthio)-8-hydroxynaphthalene-1,4-dione] | 7130 ± 1820 nM | 2570 ± 500 nM | 91.9% | > 20 µM | > 50 µM | 1.88 ± 0.08 µM | 10.7 ± 1.26 µM |  | 880 ± 120 nM |  | >10.6 | > 20 µM |  |  |  |  |  | 
CN(C)C1=CC(=O)c2cccc(O)c2C1=O [Compound 23, 2-(Dimethylamino)-8-hydroxynaphthalene-1,4-dione] | > 20000 nM | > 20000 nM | 16.7% | > 20 µM | > 100 µM | > 20 µM | > 100 µM |  | > 20000 nM |  |  |  |  |  |  |  |  | 
CN(C)C1=CC(=O)c2c(O)cccc2C1=O [Compound 24, 3-(Dimethylamino)-8-hydroxynaphthalene-1,4-dione] | > 20000 nM | 16000 ± 2110 nM | 30.2% | > 20 µM | > 100 µM | > 20 µM | > 100 µM |  | > 20000 nM |  |  |  |  |  |  |  |  | 
O=C1C=C(O)C(=O)c2c(O)cccc21 [Compound 25, 2,8-Dihydroxynaphthalene-1,4-dione] | > 20000 nM | > 20000 nM | 5.21% | > 20 µM | > 100 µM | > 20 µM | > 100 µM |  | > 20000 nM |  |  |  |  |  |  |  |  | 
O=C1C(O)=CC(=O)c2c(O)cccc21 [Compound 26, 3,8-Dihydroxynaphthalene-1,4-dione] | > 20000 nM | > 20000 nM | 5.17% | > 20 µM | > 100 µM | > 20 µM | > 100 µM |  | > 20000 nM |  |  |  |  |  |  |  |  | 
COc1ccc(SC2=C(O)C(=O)c3c(O)cccc3C2=O)cc1 [Compound 27, 2,8-Dihydroxy-3-((4-methoxyphenyl)thio)naphthalene-1,4-dione] | 13700 ± 890 nM | > 20000 nM | 1.08% | > 20 µM | > 20 µM | > 20 µM | > 100 µM |  | > 20000 nM |  |  | > 20 µM |  |  |  |  |  | 
CC(C)C[C@H](NC(=O)[C@H](Cc1ccccc1)NC(=O)c1cnccn1)B(O)O [bortezomib, reference compound] |  |  |  | 7.86 ± 1.23 µM | 0.69 ± 0.2 µM | 5.24 ± 0.79 µM | 0.46 ± 0.01 µM |  |  | 0.08 µM | 0.017 | 0.09 ± 0.01 µM |  |  |  |  |  | 
CC(C)(C)CN(C(=O)CCl)C1CCS(=O)(=O)C1 (centres unmarked) [sulfopin, reference compound] |  |  |  |  |  |  |  |  |  |  |  |  |  | does not show any effect | does not show any effect | no significant impacts | no significant impacts | no significant impacts
